Reference: patent US5840303A, “Peptides for inducing cytotoxic T lymphocyte responses to hepatitis B virus” (The Scripps Research Foundation, priority 1995, dated 1998)
Residues, ends and D or L forms follow the SMILES beside them.

Legend:
[1] = system: HBV core specific CTL from PBMC of patients with acute hepatitis B; details: patient
[2] = system: autologous target cells pulsed with peptide HBc11-27; test: Immunodominance of the HBc11-27 CTL epitope in HLA-A2 positive subjects; format: cell-based, human; details: one of the four chronic patients
Excerpt: To assess the immunodominance in the HLA-A2 haplotype of the CTL epitope(s) contained in peptide HBc11-27, eight additional subjects with self-limited acute hepatitis B infection, four patients with chronic active hepatitis B, and eight healthy subjects without evidence of previous exposure to HBV (all HLA-A2 positive) were repeatedly tested.
Patient to patient variations in the pattern of response to the peptide were observed during the course of the illness. The cytolytic activity was generally detectable during the icteric phase when transaminase values were high; in some patients the response was long-lasting, being still detectable when GPT levels had already become normal, and in other subjects the lytic activity became undetectable 2 or 3 weeks after the transaminase peak when GPT levels were still slightly altered.

## CC(C)C[C@H](NC(=O)[C@@H](NC(=O)[C@H](CO)NC(=O)[C@@H](N)CC(C)C)[C@@H](C)O)C(=O)N1CCC[C@H]1C(=O)N[C@@H](CCC(=O)O)C(=O)N[C@H](C(=O)N[C@H](C(=O)N[C@H](C(=O)N[C@H](C(=O)N[C@@H](CCCNC(=N)N)C(=O)N[C@@H](CCCNC(=N)N)C(=O)N[C@@H](CCCNC(=N)N)C(=O)NCC(=O)N[C@@H](CCCNC(=N)N)C(=O)N[C@@H](CO)C(=O)O)C(C)C)C(C)C)[C@@H](C)O)[C@@H](C)O [140-155]
[1]
  cytotoxic activity of unstimulated PBMC against autologous B-LCL fed with peptide: No cytotoxic activity was observed

## CC(C)C[C@H](NC(=O)[C@H](CC(C)C)NC(=O)[C@H](CCC(=O)O)NC(=O)[C@@H](NC(=O)[C@@H](NC(=O)[C@H](C)N)[C@@H](C)O)C(C)C)C(=O)N[C@@H](CO)C(=O)N[C@@H](Cc1ccccc1)C(=O)N[C@@H](CC(C)C)C(=O)N1CCC[C@H]1C(=O)N[C@@H](CO)C(=O)N[C@@H](CC(=O)O)C(=O)N[C@@H](Cc1ccccc1)C(=O)N[C@@H](Cc1ccccc1)C(=O)N1CCC[C@H]1C(=O)N[C@@H](CO)C(=O)N[C@H](C(=O)O)C(C)C [HBc11-27] (H-ATVELLSFLPSDFFPSV-OH)
[2]
  cytotoxicity against the relevant peptide sequence: detectable, though very low levels of cytotoxicity
